Source: EP4122499A1, “FIBROBLAST ACTIVATION PROTEIN INHIBITORS AND USE THEREOF” (3B Pharmaceuticals GmbH, priority 2021, dated 2023)

Columns and labels:
[1] = target: T1, FAP-expressing human WI-38 fibroblasts (Homo sapiens, UniProt Q12884); assay: Competitive FACS binding assay (displacement of Cy5-labeled FAP inhibitor 3BP-2935); conditions: 3 nM Cy5-labeled 3BP-2935, 4°C, 1 hour
T1 construct: FAP-expressing human WI-38 fibroblasts (ECACC 90020107) were cultured in EMEM; host or cells: WI-38 human fibroblasts
T1 sequence (Q12884 1-760): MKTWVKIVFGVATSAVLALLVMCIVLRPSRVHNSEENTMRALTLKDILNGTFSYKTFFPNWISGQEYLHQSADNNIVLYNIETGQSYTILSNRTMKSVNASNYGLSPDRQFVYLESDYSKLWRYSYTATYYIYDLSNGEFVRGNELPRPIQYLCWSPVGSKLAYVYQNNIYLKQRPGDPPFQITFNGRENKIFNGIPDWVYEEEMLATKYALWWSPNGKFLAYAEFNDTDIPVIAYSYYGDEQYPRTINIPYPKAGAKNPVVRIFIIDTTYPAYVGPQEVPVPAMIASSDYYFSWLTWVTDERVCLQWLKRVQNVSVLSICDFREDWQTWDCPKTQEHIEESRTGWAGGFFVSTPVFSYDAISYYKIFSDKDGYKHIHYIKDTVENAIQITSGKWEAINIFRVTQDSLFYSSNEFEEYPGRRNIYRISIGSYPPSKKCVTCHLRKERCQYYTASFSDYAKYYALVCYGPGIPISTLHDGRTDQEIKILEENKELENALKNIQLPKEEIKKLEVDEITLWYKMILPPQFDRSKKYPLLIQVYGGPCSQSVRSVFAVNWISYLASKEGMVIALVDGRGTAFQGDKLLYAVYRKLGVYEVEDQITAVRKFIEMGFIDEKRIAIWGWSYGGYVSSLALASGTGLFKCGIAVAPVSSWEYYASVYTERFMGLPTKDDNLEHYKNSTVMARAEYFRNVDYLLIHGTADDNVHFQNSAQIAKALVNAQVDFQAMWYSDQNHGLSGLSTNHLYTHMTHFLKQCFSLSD
Description: In order to determine binding of compounds according to the present invention to FAP-expressing cells, a competitive FACS binding assay was established.
Cells were diluted in FACS buffer to a final concentration of 100.000 cells per ml and 200 µl of the cell suspension are transferred to a u-shaped non-binding 96-well plate (Greiner).
Cell were washed twice with FACS buffer (see above) and resuspended in 200 µl FACS buffer. Cells were analyzed in an Attune NxT flow cytometer (Thermo Fisher Scientific). Median fluorescence intensities (Cy5 channel) was calculated by Attune NxT software and plotted against test compound concentrations. Four parameter logistic (4PL) curve fitting and pIC50 calculations were performed using ActivityBase software.

Human recombinant FAP [2] = target: T2, Human recombinant FAP (Homo sapiens, UniProt Q12884); assay: FRET-based FAP protease activity assay (human); assay type: biochemical; set-up: purchased R&D systems 3715-SE; conditions: FRET-peptide substrate, 37°C; for IC50: read-out: pIC50 (Activity) (converted)
T2 sequence (Q12884 1-760): T1 sequence (Q12884 1-760)
Description: In order to determine the inhibitory activity a FRET-based FAP protease activity assay was established.
25 µL of a 30 µM substrate solution, diluted in assay buffer, was added. […] Four parameter logistic (4PL) curve fitting and pIC50 calculations were performed using ActivityBase software (IDBS).

Recombinant human DPP4 = target: T3, Recombinant human DPP4 (Homo sapiens, UniProt P27487); assay: DPP4 protease activity assay; assay type: biochemical; conditions: 20 µM GP-AMC substrate; read-out: pIC50 (DPP4) (converted)
T3 construct: purchased R&D systems 9168-SE
T3 sequence (P27487 whole entry): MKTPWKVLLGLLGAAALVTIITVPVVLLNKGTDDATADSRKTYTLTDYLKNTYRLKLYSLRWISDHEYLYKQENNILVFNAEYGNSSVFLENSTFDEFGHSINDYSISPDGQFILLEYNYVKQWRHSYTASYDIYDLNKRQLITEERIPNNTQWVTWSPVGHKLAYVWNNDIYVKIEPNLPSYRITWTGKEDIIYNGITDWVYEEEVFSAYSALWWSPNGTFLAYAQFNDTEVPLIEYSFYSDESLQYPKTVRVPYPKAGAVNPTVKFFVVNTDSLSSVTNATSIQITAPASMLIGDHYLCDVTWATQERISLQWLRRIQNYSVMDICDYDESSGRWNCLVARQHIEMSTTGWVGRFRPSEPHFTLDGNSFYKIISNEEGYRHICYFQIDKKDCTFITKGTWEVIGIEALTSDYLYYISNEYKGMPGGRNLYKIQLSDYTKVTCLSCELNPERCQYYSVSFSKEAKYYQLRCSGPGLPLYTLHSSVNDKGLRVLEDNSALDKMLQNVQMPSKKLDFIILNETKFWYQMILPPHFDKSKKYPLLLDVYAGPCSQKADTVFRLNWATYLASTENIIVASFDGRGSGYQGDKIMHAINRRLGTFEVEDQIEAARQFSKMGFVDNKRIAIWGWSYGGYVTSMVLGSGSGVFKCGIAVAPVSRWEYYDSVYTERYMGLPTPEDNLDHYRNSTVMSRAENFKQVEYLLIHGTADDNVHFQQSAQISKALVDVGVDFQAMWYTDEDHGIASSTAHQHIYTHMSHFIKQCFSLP
Description: The PREP activity assay was performed using the FACS buffer (PBS including 1% FBS, Sigma-Aldrich, Cat# D8537). […] The DPP4 activity assay was performed in DPP assay buffer (25 mM Tris, pH 8.0).
Four parameter logistic (4PL) curve fitting and pIC50 calculations were performed using ActivityBase software.

Human recombinant FAP [3] = target: T2, Human recombinant FAP; assay: Surface plasmon resonance assay (Biacore T200, single cycle kinetics); assay type: binding; conditions: SPR, 25°C; for Kd: read-out: pKD (Biacore) (converted); for HL [min] (Biacore): half-life
Description: Surface plasmon resonance studies were performed using a Biacore™ T200 SPR system (Cytiva, formerly GE Healthcare). Briefly, polarized light is directed towards a gold-labeled sensor surface, and minimum intensity reflected light is detected. The angle of reflected light changes as molecules bind and dissociate. […] Test compounds are contacted with the loaded surface, and a real-time interaction profile with the FAP ligand is recorded in a sensorgram. In real-time, the association and dissociation of a binding interaction is measured, enabling calculation of association and dissociation rate constants and the corresponding affinity constants. Importantly, a background response is generated due to the difference in the refractive indices of the running and sample buffers, as well as unspecific binding of the test compounds to the flow cell surface. This background is measured and subtracted by running the sample on a control flow cell coated with the same density of capture antibody in the absence of immobilized FAP. Furthermore, baseline drift correction of the binding data is performed, which is caused by slow dissociation of the captured FAP from the immobilized antibody. This drift is measured by injecting running buffer through a flow cell with the antibody and FAP immobilized to the sensor surface.
Biacore™ CM5 sensor chips were used. […] A 150 µL aliquot was transferred into plastic vials and placed into the sample rack of the Biacore™ T200 instrument. Amine Coupling Kit Reagent solutions were transferred into plastic vials and placed into the sample rack: 90 µL of 0.4 M 1-ethyl-3-(3-dimethylaminopropyl)carbodiimide (EDC), and 90 µL of 0.1 M N-hydroxysuccinimide (NHS). A 130 µL aliquot of 1 M ethanolamine-HCl, pH 8.5, was transferred into plastic vials and placed into the sample rack. The Biacore™ liquid system was set-up as follows: Separate bottles containing distilled water (1 L), Running Buffer (500 mL), as well as an empty bottle for waste were placed onto the buffer tray. A preinstalled program for immobilization was used, with an immobilization level of 7000 RU. Immobilization was performed at 25°C. The immobilization procedure of anti-FAP antibodies was performed, as described in the Table 5. Table 5: Immobilization protocol for anti-FAP antibodies used on the CM5 sensor chip.
Human recombinant FAP was diluted in Running Buffer to a final concentration of 20 µg/mL. A 100 µL aliquot of human FAP-Working-Solution was transferred into plastic vials and placed into a sample rack. A 0.5 mM Compound-Stock-Solution was prepared by dissolving each compound in DMSO. For each test compound, Compound-Stock-Solutions were diluted in Running Buffer (HBST) at 500 nM and further diluted with HBST-DMSO Buffer (0.1% DMSO). SPR binding analyses for binary complexes were performed in SCK mode at 25°C. Following three SCK measurements, a baseline drift was assessed by injecting running buffer through a flow cell, with the antibody and FAP immobilized to the sensor surface. Table 6: Protocol for assessing the binding kinetics.
For each test compound, SPR raw data in the form of resonance units (RU) were plotted as sensorgrams using the Biacore™ T200 control software. The signal from the blank sensorgram was subtracted from that of the test compound sensorgram (blank corrected). The blank corrected sensorgram was corrected for baseline drift by subtracting the sensorgram of a SCK run without the test compound (running buffer only). The association rate (kon), dissociation rate (koff), dissociation constant (KD), and t1/2 were calculated from Blank-normalized SPR data using the 1:1 Langmuir binding model from the Biacore™ T200 evaluation software. Raw data and fit results were imported as text files in IDBS. The pKD value (negative decadic logarithm of dissociation constant) was calculated in the IDBS excel template.

Compound | IC50 [1] [nM] | IC50 (Human recombinant FAP [2]) [nM] | further results
Cn1ncnc1C(=O)[C@@H]1CCCN1C(=O)CNC(=O)c1ccnc2ccccc12 | > 1000 | 316 | 
CC(C)(C)OC(=O)N1CCN(CCCOc2ccc3c(c2)c(C(=O)NCC(=O)N2CC(F)(F)C[C@H]2C#N)cc[n+]3[O-])CC1 | 10 | 2.51 | 
N#C[C@@H]1CC(F)(F)CN1C(=O)CNC(=O)c1ccnc2c(OCCCCc3ccccc3)cccc12 |  |  | pIC50 (FACS) [1]: 7.7; pIC50 (Activity) (Human recombinant FAP [2]): 8.2
CC(C)(C)OC(=O)N1CC[N+]([O-])(CCCOc2ccc3nccc(C(=O)NCC(=O)N4CC(F)(F)C[C@H]4C#N)c3c2)CC1 | 2.51 | 1 | 
O=C(NCC(=O)N1CCC[C@H]1B(O)O)c1ccnc2ccccc12 | 3.16 | 1.26 | 
N#C[C@@H]1CCCN1C(=O)CNC(=O)c1ccnc2ccccc12 |  |  | IC50 (Recombinant human DPP4): > 1000 nM
N#C[C@@H]1CCCN1C(=O)CNC(=O)c1ccnc2ccc(-c3ccc(C(=O)O)cc3)cc12 | 2.51 | 1.58 | IC50 (Recombinant human DPP4): > 1000 nM; Kd (Human recombinant FAP [3]; 1:1 Langmuir binding model): 0.2 nM; HL [min] (Biacore) (Human recombinant FAP [3]): 11 min
CC(C)(C)OC(=O)N1CC[N+]([O-])(CCCOc2ccc3c(c2)c(C(=O)NCC(=O)N2CC(F)(F)C[C@H]2C#N)cc[n+]3[O-])CC1 | 10 | 2.51 | 
N#C[C@@H]1CC(F)(F)CN1C(=O)CNC(=O)c1ccnc2ccc(-c3ccc(C(=O)NCCN4CCN(C(=O)CN5CCN(CC(=O)O)CCN(CC(=O)O)CCN(CC(=O)O)CC5)CC4)nc3)cc12 |  |  | pKD (Biacore) (Human recombinant FAP [3]; 1:1 Langmuir binding model): >11; HL [min] (Biacore) (Human recombinant FAP [3]): >500 min
N#C[C@@H]1CC(F)(F)CN1C(=O)CNC(=O)c1ccnc2ccccc12 |  |  | HL [min] (Biacore) (Human recombinant FAP [3]): 10.4 min
N#C[C@@H]1CCCN1C(=O)CNC(=O)c1ccnc2ccc(-n3cc(C(=O)NCCCNC(=O)CN4CCN(CC(=O)O)CCN(CC(=O)O)CCN(CC(=O)O)CC4)nn3)cc12 |  |  | HL [min] (Biacore) (Human recombinant FAP [3]): 95 min

More lines, main results first:

IC50 [1] [nM] | IC50 (Human recombinant FAP [2]) [nM] | Compound | further results
20 | 3.16 | CCOc1cccc2c(C(=O)NCC(=O)N3CC(F)(F)C[C@H]3C#N)ccnc12 | 
15.8 | 3.16 | N#C[C@@H]1CC(F)(F)CN1C(=O)CNC(=O)c1ccnc2c(OCC3CC3)cccc12 | 
25.1 | 12.6 | Cc1cccc2c(C(=O)NCC(=O)N3CC(F)(F)C[C@H]3C#N)ccnc12 | 
3.98 | 1.58 | CC(C)(C)OC(=O)N1CCN(CCCOc2ccc3nccc(C(=O)NCC(=O)N4CC(F)(F)C[C@H]4C#N)c3c2)CC1 | 
2 | 0.501 | CS(=O)(=O)c1ccc(-c2ccc3nccc(C(=O)NCC(=O)N4CC(F)(F)C[C@H]4C#N)c3c2)c(CO)c1 | Kd (Human recombinant FAP [3]; 1:1 Langmuir binding model): < 0.01 nM; HL [min] (Biacore) (Human recombinant FAP [3]): >500 min
20 | 6.31 | COc1cccc2c(C(=O)NCC(=O)N3CC(F)(F)C[C@H]3C#N)ccnc12 | 
